Experimental data taken from article PMC8496750, “Identification of the organic anion transporting polypeptides responsible for the hepatic uptake of the major metabolite of epyrifenacil, S‐3100‐CA, in mice” (Pharmacology Research & Perspectives, 2021).

How the values were obtained:
various OATPs = assay: Inhibition of S‐3100‐CA uptake by OATP inhibitors, various OATPs; format: in vitro ADME, mouse, human; settings: inhibitor at 100 μM
Experimental: 293FT cells were purchased from Thermo Fisher Scientific, Inc.. The cells were grown in Dulbecco's modified Eagle medium (supplemented with 4.5 g/L glucose and 2 mM L‐glutamine) at 37°C, 5% CO2, and 95% humidity. The cells were passaged 3 times per week by harvesting cells using trypsin and plating at a density of 1.0 × 10^4 cells/cm^2 in a 10 cm cell culture plate for maintenance culture. The 293FT cells were detached using trypsin and re‐seeded at a density of 2.5 × 10^4 cells/cm^2 in BioCoat™ Collagen I 6‐well plates (Corning Inc.) for transfection and then treated with 1.2 μg of plasmid vector and 3.2 μl of Lipofectamine™ 2000 Transfection Reagent (Thermo Fisher Scientific, Inc.) according to the manufacturer's instructions. After a 3‐h treatment, the transfection medium was replaced with a fresh cell culture medium and incubated at 37°C with 95% humidity and 5% CO2 until ready for the assay.
Transport experiments were conducted approximately 24 h post‐transfection. […] From the lysate, 1.0 ml was transferred to a vial containing 10 ml of Emulsifier Scintillator Plus to measure the radioactivity in the LSC. The protein concentration of the cell lysate was also measured using a Pierce™ BCA Protein Assay Kit (Thermo Fisher Scientific, Inc.), which was used to normalize, according to the cell number, the radioactivity in the cell lysate extract. […]

mouse Oatp1a1 = target: T1, mouse Oatp1a1 (Mus musculus, UniProt Q9QXZ6); assay: in vitro; settings: 293FT cells transiently transfected with mouse Oatp1a1, probe radiolabeled S‐3100‐CA
T1 sequence (Q9QXZ6 1-670): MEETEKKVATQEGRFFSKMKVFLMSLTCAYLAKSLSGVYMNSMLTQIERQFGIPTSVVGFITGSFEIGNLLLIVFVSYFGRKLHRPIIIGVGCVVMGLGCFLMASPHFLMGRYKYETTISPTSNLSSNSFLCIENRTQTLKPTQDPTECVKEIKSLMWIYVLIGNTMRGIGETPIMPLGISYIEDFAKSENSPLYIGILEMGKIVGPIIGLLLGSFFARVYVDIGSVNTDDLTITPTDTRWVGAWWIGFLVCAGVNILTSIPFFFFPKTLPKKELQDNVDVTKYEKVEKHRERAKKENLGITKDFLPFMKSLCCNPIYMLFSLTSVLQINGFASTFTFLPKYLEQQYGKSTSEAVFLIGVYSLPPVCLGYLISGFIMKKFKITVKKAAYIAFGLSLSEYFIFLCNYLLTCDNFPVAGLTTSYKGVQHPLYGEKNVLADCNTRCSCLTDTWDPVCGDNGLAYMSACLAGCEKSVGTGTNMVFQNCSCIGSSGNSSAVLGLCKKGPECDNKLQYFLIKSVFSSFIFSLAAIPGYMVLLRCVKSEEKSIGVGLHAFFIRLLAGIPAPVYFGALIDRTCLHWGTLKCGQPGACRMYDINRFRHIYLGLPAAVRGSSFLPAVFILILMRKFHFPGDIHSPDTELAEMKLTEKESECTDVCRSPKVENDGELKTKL
Experimental: (§1) Transport experiments were conducted approximately 24 h post‐transfection. The experiments were initiated by aspirating culture medium and addition of pre‐warmed radiolabeled substrate solution (final 1.0% of acetonitrile or 0.9% of ethanol in phosphate‐buffered saline (PBS[−])) to each well. After a 10‐min incubation, cells were washed twice with 1 ml of ice‐cold PBS(−) and lysed with 700 μl of 1.0 M NaOH for 3 h or more at room temperature. The lysate was transferred to a 1.5‐ml tube, and neutralized with 350 μl of 2.0 M HCl and 350 μl of 2.0% sodium dodecyl sulfate (SDS) solution. From the lysate, 1.0 ml was transferred to a vial containing 10 ml of Emulsifier Scintillator Plus to measure the radioactivity in the LSC. The protein concentration of the cell lysate was also measured using a Pierce™ BCA Protein Assay Kit (Thermo Fisher Scientific, Inc.), which was used to normalize, according to the cell number, the radioactivity in the cell lysate extract. The protein assay was performed in duplicate. Each sample type was assayed in triplicate wells, and each run was performed twice. […] Each sample type was assayed in triplicate wells.

mouse Oatp1a4 = target: T2, mouse Oatp1a4 (Mus musculus, UniProt Q9EP96); assay: in vitro; settings: 293FT cells transiently transfected with mouse Oatp1a4, probe radiolabeled S‐3100‐CA
T2 sequence (Q9EP96 1-670): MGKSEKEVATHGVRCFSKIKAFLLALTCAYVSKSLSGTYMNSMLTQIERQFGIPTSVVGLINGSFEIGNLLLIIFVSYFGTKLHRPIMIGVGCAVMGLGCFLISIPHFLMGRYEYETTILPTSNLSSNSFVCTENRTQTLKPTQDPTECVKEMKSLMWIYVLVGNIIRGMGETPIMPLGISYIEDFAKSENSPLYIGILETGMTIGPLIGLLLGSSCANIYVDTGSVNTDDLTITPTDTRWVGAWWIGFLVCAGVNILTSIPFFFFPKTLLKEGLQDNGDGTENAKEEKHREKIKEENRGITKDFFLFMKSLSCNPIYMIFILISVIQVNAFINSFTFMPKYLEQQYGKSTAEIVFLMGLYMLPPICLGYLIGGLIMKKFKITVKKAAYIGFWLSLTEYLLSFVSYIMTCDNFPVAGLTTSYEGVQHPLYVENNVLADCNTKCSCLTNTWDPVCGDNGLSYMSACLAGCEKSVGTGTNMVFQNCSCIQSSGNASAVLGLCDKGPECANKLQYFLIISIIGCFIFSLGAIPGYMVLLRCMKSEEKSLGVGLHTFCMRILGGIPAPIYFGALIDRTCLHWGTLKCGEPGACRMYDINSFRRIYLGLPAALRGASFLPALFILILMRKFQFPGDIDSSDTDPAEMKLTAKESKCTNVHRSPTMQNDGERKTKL
Experimental: as §1

In the case of `CO[C@H]1/C=C/O[C@@]2(C)Oc3c(C)c(O)c4c(O)c(cc(O)c4c3C2=O)NC(=O)/C(C)=C\C=C\[C@H](C)[C@H](O)[C@@H](C)[C@@H](O)[C@@H](C)[C@H](OC(C)=O)[C@@H]1C` [RSV, rifamycin SV], the “Inhibition of S‐3100‐CA uptake (in words)” value (various OATPs) is reported as “inhibited uptake via all OATPs other than human OATP2B1”, the inhibition at 10 min, 10 µM (mouse Oatp1a1) is reported as greater than 50% and the inhibition at 10 min, 10 µM (mouse Oatp1a4) is reported as greater than 50%.
